Results from ChEMBL document CHEMBL1135859, “Indinavir analogues with blocked metabolism sites as HIV protease inhibitors with improved pharmacological profiles and high potency against PI-resistant viral strains” (Bioorg Med Chem Lett, 2002).

Columns and labels:
MT4 = assay: Concentration required to inhibit the spread of viral infection in MT-4 human T-lymphoid cells infected by the NL4-3 virus; assay type: functional; conditions: read-out: CIC95
[1] = biological target: T1, Human immunodeficiency virus type 1 protease (Human immunodeficiency virus 1, UniProt Q72874); assay: Inhibitory concentration required to inhibit cleavage of a substrate by the wild-type HIV-1 Protease
[2] = Half life in dogs; assay type: ADME, organism-based, Canis lupus familiaris; conditions: dog, in vivo
[3] = Bioavailability in dog; assay type: ADME, organism-based, Canis lupus familiaris; conditions: in vivo
[4] = Maximum concentration was determined; assay type: ADME, organism-based, Canis lupus familiaris; conditions: dog, in vivo
[5] = Area under curve in dogs; assay type: ADME, organism-based, Canis lupus familiaris; conditions: dog, in vivo
[6] = tested on: Human immunodeficiency virus 1; assay: Concentration required to control the spread of HIV mutant strain 4X virus; assay type: functional; conditions: read-out: CIC95
[7] = tested on: Human immunodeficiency virus 1; assay: Concentration required to control the spread of HIV mutant strain K-60C; assay type: functional; conditions: read-out: CIC95
[8] = tested on: Human immunodeficiency virus 1; assay: Concentration required to control the spread of HIV mutant strain Q-60C; assay type: functional; conditions: read-out: CIC95
[9] = tested on: Human immunodeficiency virus 1; assay: Concentration required to control the spread of HIV mutant strain V-18C; assay type: functional; conditions: read-out: CIC95
[10] = biological target: T1, Human immunodeficiency virus type 1 protease; assay: Inhibitory concentration required to inhibit cleavage of a substrate by the wild-type HIV-1 protease enzyme
[11] = tested on: Human immunodeficiency virus 1; assay: (§1) Concentration required to control the spread of HIV mutant strain WT; assay type: functional; conditions: read-out: CIC95
[12] = Half life was determined; assay type: ADME, organism-based, Canis lupus familiaris; conditions: dog, in vivo
[13] = Area under curve was determined; assay type: ADME, organism-based, Canis lupus familiaris; conditions: dog, in vivo
[14] = Bioavailability; assay type: ADME, organism-based, Canis lupus familiaris; conditions: dog, in vivo
[15] = tested on: Human immunodeficiency virus 1; assay: as §1; conditions: Human immunodeficiency virus 1, read-out: CIC95

Structure (SMILES): CC(C)(C)NC(=O)[C@@H]1CN(C(C)(C)c2cccnc2)CCN1C[C@@H](O)C[C@@H](Cc1ccccc1)C(=O)N[C@H]1c2ccccc2C[C@H]1O
- IC95 (MT4): 50 nM
- IC50 [1]: 1.16 nM

Structure (SMILES): CC(C)(C)NC(=O)[C@@H]1CN(C(C)(C)c2cc3cnccc3o2)CCN1C[C@@H](O)C[C@@H](Cc1ccccc1)C(=O)N[C@H]1c2ccccc2OC[C@H]1O
- half-life [2]: 62.4 min
- bioavailability [3]: 81%
- Cmax [4]: 8.85 µM
- AUC [5]: 7.43 µM·h
- IC95 [6]: 31 nM
- IC95 [7]: 500 nM
- IC95 [8]: 250 nM
- IC95 [9]: 250 nM
- IC50 [10]: 0.075 nM
- IC95 [11]: < 8 nM
- IC95 (MT4): < 8 nM

Structure (SMILES): CC(C)(C)NC(=O)[C@@H]1CN(C(C)(C)c2cc3cnccc3o2)CCN1C[C@@H](O)C[C@@H](Cc1ccccc1)C(=O)N[C@H]1c2ccccc2C[C@H]1O
- half-life [2]: 47 min
- bioavailability [3]: 44.3%
- Cmax [4]: 16.6 µM
- AUC [5]: 14.1 µM·h
- IC95 [6]: 625 nM
- IC95 [7]: > 1000 nM
- IC95 [8]: > 1000 nM
- IC95 [9]: > 1000 nM
- IC95 [11]: 15 nM
- IC95 (MT4): 15 nM
- IC50 [1]: 0.15 nM

Structure (SMILES): CC(C)(C)NC(=O)[C@@H]1CN(Cc2cc3cnccc3o2)CCN1C[C@@H](O)C[C@@H](Cc1ccccc1)C(=O)N[C@H]1c2ccccc2C[C@H]1O
- IC95 (MT4): 15 nM
- IC50 [1]: 0.23 nM

Structure (SMILES): CC(C)(C)NC(=O)[C@@H]1CN(Cc2cccnc2)CCN1C[C@@H](O)C[C@@H](Cc1ccccc1)C(=O)N[C@H]1c2ccccc2C[C@H]1O.O [INDINAVIR]
- half-life [12]: 38 min
- AUC [13]: 12.5 µM·h
- bioavailability [14]: 71.6%
- IC95 [6]: 500 nM
- IC95 [7]: > 3000 nM
- IC95 [8]: > 1000 nM
- IC95 [9]: 1500 nM
- IC95 [15]: 50.5 nM
- IC95 (MT4): 50 nM
